Measurements: patent US5506102A (priority 1993, dated 1996)

Biological target: T1, human androgen receptor (Homo sapiens, UniProt P10275)
T1 sequence (P10275 1-920): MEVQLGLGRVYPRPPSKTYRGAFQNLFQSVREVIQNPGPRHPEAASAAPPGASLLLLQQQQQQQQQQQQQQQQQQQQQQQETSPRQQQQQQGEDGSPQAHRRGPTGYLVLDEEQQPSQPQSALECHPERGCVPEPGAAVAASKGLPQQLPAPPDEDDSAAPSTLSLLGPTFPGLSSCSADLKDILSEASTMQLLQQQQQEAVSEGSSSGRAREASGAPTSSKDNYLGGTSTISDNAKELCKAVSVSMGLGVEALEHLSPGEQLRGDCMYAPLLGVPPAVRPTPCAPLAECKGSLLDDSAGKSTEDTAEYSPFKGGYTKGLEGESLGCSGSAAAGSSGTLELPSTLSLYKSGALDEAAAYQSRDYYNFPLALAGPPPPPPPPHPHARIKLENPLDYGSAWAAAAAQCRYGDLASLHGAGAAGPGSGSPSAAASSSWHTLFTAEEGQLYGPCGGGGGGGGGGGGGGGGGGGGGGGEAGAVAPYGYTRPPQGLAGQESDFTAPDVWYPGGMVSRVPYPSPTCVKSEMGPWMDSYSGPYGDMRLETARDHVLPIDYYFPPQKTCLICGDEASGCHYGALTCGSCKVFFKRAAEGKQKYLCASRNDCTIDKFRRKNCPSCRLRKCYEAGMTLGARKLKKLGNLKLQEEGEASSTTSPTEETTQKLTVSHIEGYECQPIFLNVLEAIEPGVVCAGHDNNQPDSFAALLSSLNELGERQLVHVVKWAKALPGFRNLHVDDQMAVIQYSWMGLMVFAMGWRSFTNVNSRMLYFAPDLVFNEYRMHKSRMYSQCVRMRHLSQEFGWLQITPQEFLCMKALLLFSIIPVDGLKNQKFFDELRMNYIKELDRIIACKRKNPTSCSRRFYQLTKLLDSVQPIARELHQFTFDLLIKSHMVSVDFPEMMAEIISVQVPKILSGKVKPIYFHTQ
Test: AR transcriptional activity on MMTV-LUC, CV-1 cells, AR co-expressed with PR-A
Assay type: cell-based
Conditions: AR plus PR-A, FIG. 10B
Method: FIGS. 10A-10B are a series of graphs showing CV-1 cells that were transiently transfected with an expression vector for the human androgen receptor (pRShAR) alone, or in combination with phPR-A together with 5 µg/ml of the MMTV-LUC reporter and 5 µg/ml of pCH110 as an internal control. […] The relative luciferase activity is calculated by dividing the normalized luciferase value at a given point by that obtained in the absence of transfected receptor or ligand. […] The data are presented as percent (%) activation, where 100% represents the maximal induction achieved by human androgen receptor at 10^ -8 M DHT. The experimental data represents mean values +/- the average deviation from the mean of quadruplicate estimations;
Cells were seeded in 12-well, 96-well or 10 cm tissue culture plates. […] 20 μg of DNA/ml of transfection buffer were used in each transfection reaction. In this mix, the concentration of the luciferase plasmids and that of the internal control plasmid pCH110 (Pharmacia, Inc.), which contains the gene for the β-galactosidase enzyme, remained constant ([…] of each plasmid DNA), while the receptor plasmid concentration varied as indicated for each experiment. […]

With `CC#C[C@]1(O)CC[C@H]2[C@@H]3CCC4=CC(=O)CCC4=C3[C@@H](c3ccc(C(C)=O)cc3)C[C@@]21C` [ZK112993] the “effect on DHT-induced AR activity in the presence of PR-A” value was “increased by the introduction of PR-A”.
